Results reported in patent US4048334A, “Active derivatives of methylamino in therapeutic compositions and methods of use” (priority 1974, dated 1977).

Key:
[1] = test system: reserpine-induced catatonia; assay: Inhibition of reserpine-induced catatonia; assay type: in vivo, rat (male, OFA strain)
Experimental: 1. Inhibition of reserpine-induced catatonia
After sufficient doses of reserpine have been administered to the rat, a series of symptoms occur, more particularly ptosis, catatonia and a drop in central temperature. These symptoms are caused by the depletion of the intragranular reserve pool of boigenetic amines at the synaptic terminals.
An oral dose of the compound to be studied in aqueous solution was administered to batches of 10 male rats of the OFA strain weighing about 150 to 200 g. Thirty minutes later a dose of 5 mg/kg of reserpine was given by intraperitoneal route. Three hours after the injection of reserpine, the animals were suspended by the four paws to a horizontally stretched wire fixed at 15 cm from the ground. The catatonic animals were those which maintained the position so given for at least 30 seconds. […] The maximum score was therefore 10 per batch. An identical trial was undertaken with control animals which received reserpine but none of the compounds being studied.

[2] = test system: neuroleptic-induced catatonia; assay: Inhibition of neuroleptic-induced catatonia (prochlorperazine); assay type: in vivo, rat (male, OFA strain)
Experimental: 2. Inhibition of neuroleptic-induced catatonia
The blocking of dopaminergic receptors by neuroleptics in the extra-pyramidal system induces catatonia in the rat. Catatonia is differentiated from sedative properties by means of the test used hereabove for reserpine-induced catatonia. The same system of scoring was also employed in the present case.
An oral dose of the compound to be studied in aqueous solution was administered to batches of 10 male rats of the OFA strain weighing about 150 to 200 g. […] Three hours after the injection of this latter compound, catatonia was measured. An identical trial was also carried out with control animals which received prochlorperazine but none of the compounds under study.
The scoring system, used was that given hereabove in Table I.

[3] = test system: catalepsy; assay: Inhibition of catalepsy (crossing of homolateral paws, prochlorperazine); assay type: in vivo, rat; settings: Rattus norvegicus, po, read-out: dose necessary to induce complete inhibition of the catalepsy; prochlorperazine catalepsy
Experimental: Additional trials were carried out on rats with Compound 1 and amantadine. These trials involved catalepsy as evidenced by the crossing of the animals' homolateral paws.

[4] = test system: reserpine-induced catatonia; assay: Suppression of reserpine-induced catatonia (curative treatment); assay type: in vivo, rat (male, OFA strain); set-up: key to catatonia score (maximum 5 per batch): number of animals (of 5) still in catatonia; max 5 per batch; settings: 80 mg/kg oral
Experimental: a. Suppression of reserpine-induced catatonia
Batches of 5 male rats of the OFA strain, weighing 150 to 200 g were given 5 mg/kg of reserpine by intraperitoneal route. One hour and 45 minutes later, namely when the animals were in a state of catatonia, an aqueous dose of the compound to be studied was administered by oral route to all the animals with the exception of the control group.
The progress of the catatonia was then noted following the scale used in the tests described hereabove.
The maximum score was thus 5 per batch which means that all the animals of the batch were considered to be still in a state of catatonia.

[5] = test system: neuroleptic-induced catatonia; assay: Suppression of neuroleptic-induced catatonia (curative treatment, prochlorperazine); assay type: in vivo, rat (male, OFA strain); settings: 80 mg/kg oral
Experimental: b. Suppression of neuroleptic-induced catatonia
Batches of 5 male rats of the OFA strain were given 12.5 mg/kg of prochlorperazine by intraperitoneal route. Fifty-five minutes later, an oral dose in aqueous solution of the compound to be studied was administered to all the animals with the exception of the control group. The progress of the catatonia was noted following the same scale as that used in the tests described above.

[6] = test system: tremorine-induced cholinergic effects; assay: Anti-tremorine test (cholinolytic properties in vivo); set-up: species or system mice (male, OF1 strain); key to peripheral cholinergic effects score (salivation, sweating, weeping): 0: no action; 1: slight action; 2: average action; 3: strong action; 4: very strong action
Experimental: For this purpose, the following test was performed with a view to determining the anti-tremorine properties of Compound 1.
When injected into mice, tremorine produces peripheral effects i.e. weeping, sweating, salivation and diarrhoea and central effects i.e. tremor and akinesia. Such effects are due to an increase in the amount of intracerebral acetylcholine and serotonine.
Male mice of the OF1 strain weighing about 22 g were divided into batches of 10. […] Thirty minutes later a dose of 10 mg/kg of tremorine was injected by intraperitoneal route and, at different times after this injection, note was taken of the cholinergic effects on each animal in accordance with the following scale: […]

[7] = test system: electrocardiogram; assay: Effect on the electrocardiogram; assay type: in vivo; settings: dog, 5 mg/kg injected
[8] = test system: peripheral noradrenergic phenomena (arterial pressure, nictitating membrane); settings: cat, in vivo
[9] = test system: peripheral noradrenergic phenomena (arterial pressure, nictitating membrane); assay: Influence on peripheral noradrenergic phenomena (norepinephrine, arterial pressure and nictitating membrane)
[10] = test system: isolated duodenum of the rat; assay: MAGNUS test: inhibition of acetylcholine spasm (cholinolytic / spasmolytic activity in vitro)
Source text: This test consists in determining the dose of acetylcholine which, when added to the bath, provokes spasm of the isolated duodenum of the rat. The next step consists in determining the dose of the compound under study which, when added to the bath 30 seconds before the acetylcholine, reduces the spasm.

[11] = in vivo; settings: mouse, mice, oral, aqueous solution, 10 days observation
[12] = Toxico-pharmacological index (LD50 / effective dose in catatonia); settings: in vivo
[13] = test system: reserpine-induced and neuroleptic-induced catatonia; assay: as above; settings: ED20-30: 20 to 30% inhibition of the catatonia
[14] = SPERBER et al., J. Amer. Chem. Soc., 71, 3352 (1949); cited from earlier work
[15] = 20 mg/kg oral, 30 min before reserpine
[16] = 20 mg/kg oral, 30 min before prochlorperazine

In the case of NC12CC3CC(CC(C3)C1)C2 [Amantadine, 1-amino-adamantane], the “Inhibition of reserpine-induced catatonia” value ([1]; 100 mg/kg oral, 30 min before reserpine) is reported as 4 (100% inhibition of catatonia in comparison with the controls (namely a score of 0 per studied batch)), the “Inhibition of the neuroleptic-induced catatonia” value ([2]; 100 mg/kg oral, 30 min before prochlorperazine) is reported as 4 (100% inhibition of catatonia in comparison with the controls (namely a score of 0 per studied batch)) and the ED100 [3] is reported as 80 mg/kg. For the same molecule, the “catatonia score (maximum 5 per batch)” value ([4]; 2h15 after reserpine) was 4, the “catatonia score (maximum 5 per batch)” value ([4]; 2h30 after reserpine) was 3 and the “catatonia score (maximum 5 per batch)” value ([4]; 3h30 after reserpine) was 1. The “catatonia score (maximum 5 per batch)” value ([4]; 2h after reserpine) was 5, the “catatonia score (maximum 5 per batch)” value ([4]; 3h after reserpine) was 2 and the “catatonia score (maximum 5 per batch)” value ([4]; 4h after reserpine) was 0. The “catatonia score (maximum 5 per batch)” value ([4]; 5h after reserpine) was 0, the “catatonia score (5 rats per batch)” value ([5]; 1h30 after prochlorperazine) was 5 and the “catatonia score (5 rats per batch)” value ([5]; 2h30 after prochlorperazine) was 2. For the same molecule, the “catatonia score (5 rats per batch)” value ([5]; 3h30 after prochlorperazine) was 0, the “catatonia score (5 rats per batch)” value ([5]; 3h after prochlorperazine) was 1 and the “catatonia score (5 rats per batch)” value ([5]; 4h after prochlorperazine) was 0. The “catatonia score (5 rats per batch)” value ([5]; 5h after prochlorperazine) was 0, the “peripheral cholinergic effects score (salivation, sweating, weeping)” value ([6]; 40 mg/kg oral, 20, 30 and 40 minutes after tremorine 10 mg/kg i.p.) was 4 and the “central cholinergic effects (normal and provoked tremor)” value ([6]; 40 mg/kg oral, identical to the peripheral score (4)) was “Identical results”. The antitremorine properties ([6]; mouse, in vivo) was “devoid of antitremorine properties”, the “effect on the electrocardiogram” value [7] was “cardiac arrhythmia due to ventricular extrasystoles” and the “dose from which exogenous norepinephrine is potentiated” value [8] was at least 1 mg/kg. For the same molecule, the “dose from which ganglioplegic properties are shown” value [8] was at least 5 mg/kg, the “Contractile reaction of the nictitating membrane with electric stimulation” value (from here on “Contractile reaction … with electric stimulation”) ([9]; cumulative dose 0.1 mg/kg i.v.) was 20 mm and the “Contractile reaction of the nictitating membrane without electric stimulation” value ([9]; cumulative dose 0.1 mg/kg i.v.) was 0 mm. The “Increase in arterial pressure after injection of norepinephrine” value (shortened to “Increase in arterial pressure”) ([9]; cumulative dose 0.1 mg/kg i.v.) was 29 mm Hg, the “Contractile reaction … with electric stimulation” value ([9]; cumulative dose 1 mg/kg i.v.) was 20 mm and the “Contractile reaction of the nictitating membrane without electric stimulation” value ([9]; cumulative dose 1 mg/kg i.v.) was 3 mm. For the same molecule, the “Increase in arterial pressure” value ([9]; cumulative dose 1 mg/kg i.v.) was 35 mm Hg, the “Contractile reaction … with electric stimulation” value ([9]; cumulative dose 3 mg/kg i.v.) was 16 mm and the “Contractile reaction of the nictitating membrane without electric stimulation” value ([9]; cumulative dose 3 mg/kg i.v.) was 4.4 mm. The “Increase in arterial pressure” value ([9]; cumulative dose 3 mg/kg i.v.) was 35 mm Hg, the “Contractile reaction … with electric stimulation” value ([9]; cumulative dose 5 mg/kg i.v.) was 10 mm and the “Contractile reaction of the nictitating membrane without electric stimulation” value ([9]; cumulative dose 5 mg/kg i.v.) was 5.9 mm. For the same molecule, the “Increase in arterial pressure” value ([9]; cumulative dose 5 mg/kg i.v.) was 59 mm Hg, the “Contractile reaction … with electric stimulation” value ([9]; cumulative dose 10 mg/kg i.v.) was 4 mm and the “Contractile reaction of the nictitating membrane without electric stimulation” value ([9]; cumulative dose 10 mg/kg i.v.) was 7.5 mm. The “Increase in arterial pressure” value ([9]; cumulative dose 10 mg/kg i.v.) was 57 mm Hg, the ganglioplegic action ([9]; in vivo) was “exerts a ganglioplegic action” and the “own effect on contractile reaction of the nictitating membrane” value ([9]; in vivo) was “stimulates the contractile reaction of the nictitating membrane”. For the same molecule, the “potentiation of (peripheral) effects of norepinephrine” value ([9]; in vivo) was “potentiates the peripheral adrenergic effects” and the “potentiation of the effects of the electric stimulation” value ([9]; in vivo) was “does not potentiate the effects of the electric stimulation”.

With CN1[C@@H]2CC[C@H]1C[C@@H](OC(=O)C(CO)c1ccccc1)C2 (stereo partly shown) [Atropine, reference compound] the “% of inhibition of the spasm” value ([10]; 0.1 × 10^-6 g/ml of bath) was 45% and the “% of inhibition of the spasm” value ([10]; 0.2 × 10^-6 g/ml of bath) was 100%.

For CCCC(N)(CC)CCC [Compound 2, 1-Ethyl-1-n-propyl-n-butylamine], the “Inhibition of reserpine-induced catatonia” value ([1]; 5 mg/kg oral, 30 min before reserpine 5 mg/kg i.p.) was 1 (20 to 30% inhibition of catatonia in comparison with the controls (namely a score of 7 to 8 per studied batch)), the “Inhibition of the neuroleptic-induced catatonia” value ([2]; 5 mg/kg oral, 30 min before prochlorperazine 12.5 mg/kg i.p.) was 1 (20 to 30% inhibition of catatonia in comparison with the controls (namely a score of 7 to 8 per studied batch)) and the LD50 at 240 h [11] was 150 mg/kg. It also gave a selectivity ratio [12] of 25.

With CCCC(C)(N)CC(C)CC (stereo not shown) [Compound 6, 1,3-Dimethyl-1-n-propyl-n-pentylamine] the “Inhibition of reserpine-induced catatonia” value [1, 15] was 1 (20 to 30% inhibition of catatonia in comparison with the controls (namely a score of 7 to 8 per studied batch)), the “Inhibition of the neuroleptic-induced catatonia” value [2, 16] was 1 (20 to 30% inhibition of catatonia in comparison with the controls (namely a score of 7 to 8 per studied batch)) and the LD50 at 240 h [11] was over 500 mg/kg. For the same molecule, the “Index LD50/ED20-30” value [13] was over 25.

In the case of CCCCCC(C)(N)CCC (stereo not shown) [Compound 9, 1-Methyl-1-n-propyl-n-hexylamine], the “Inhibition of reserpine-induced catatonia” value [1, 15] is reported as 1 (20 to 30% inhibition of catatonia in comparison with the controls (namely a score of 7 to 8 per studied batch)), the “Inhibition of the neuroleptic-induced catatonia” value [2, 16] is reported as 1 (20 to 30% inhibition of catatonia in comparison with the controls (namely a score of 7 to 8 per studied batch)) and the LD50 at 240 h [11] is reported as 1750 mg/kg. For the same molecule, the “Index LD50/ED20-30” value [13] was 87.

With CCCCC(N)(CCCC)CCCC [Compound 12, 1,1-Di-n-butyl-n-pentylamine] the “Inhibition of reserpine-induced catatonia” value [1, 15] was 1 (20 to 30% inhibition of catatonia in comparison with the controls (namely a score of 7 to 8 per studied batch)), the “Inhibition of the neuroleptic-induced catatonia” value [2, 16] was 1 (20 to 30% inhibition of catatonia in comparison with the controls (namely a score of 7 to 8 per studied batch)) and the LD50 at 240 h [11] was 500 mg/kg. For the same molecule, the “spasmolytic activity and toxicity versus corresponding trialkylethylamines” value [14] was “less spasmolytic and more toxic than the corresponding trialkylethylamines” and the “Index LD50/ED20-30” value [13] was 25.

With CCC=CC(N)(CCC)CCC [Compound 25, 1,1-Di-n-propyl-2-penten-1-ylamine] the “Inhibition of reserpine-induced catatonia” value ([1]; 6 mg/kg oral, 30 min before reserpine) was 3 (70 to 80% inhibition of catatonia in comparison with the controls (namely a score of 2 or 3 per studied batch)) and the “Inhibition of the neuroleptic-induced catatonia” value ([2]; 6 mg/kg oral, 30 min before prochlorperazine) was 3 (70 to 80% inhibition of catatonia in comparison with the controls (namely a score of 2 or 3 per studied batch)).

In the case of C#CCC(N)(CCC)CCC [Compound 26, 1,1-Di-n-propyl-3-butyn-1-ylamine], the “Inhibition of reserpine-induced catatonia” value ([1]; 30 mg/kg oral, 30 min before reserpine) is reported as 1 (20 to 30% inhibition of catatonia in comparison with the controls (namely a score of 7 to 8 per studied batch)) and the “Inhibition of the neuroleptic-induced catatonia” value ([2]; 30 mg/kg oral, 30 min before prochlorperazine) is reported as 4 (100% inhibition of catatonia in comparison with the controls (namely a score of 0 per studied batch)).
